From patent US6867235B2, “Helianthrone derivatives as anti-cancer agents” (Yeda Research and Development Co. Ltd., priority 2000, dated 2005)

Columns and labels:
[1] = tested on: U251 human glioblastoma cells; type: cell-based; settings: U251, complete darkness, exposure at least 72 hours, 0.1-20 μM
Description: (§1) Human HL-60 leukemic cells were grown in RPMI-1640 supplemented with 15% fetal calf serum, […] and 100 units/ml penicillin-streptomycin. Human erythroleukemia K-562 cells (derived from a chronic myeloid leukemia pateient) were grown in the same medium supplemented with 10% fetal calf serum. These cells and the human U251 glioblastoma, U87MG glioblastoma and LAN5 neuroblastoma cells used in the experiments are available from the ATCC. All cell lines were cultured in a humidified 5% CO2/95% air atmosphere at 37° C.
(§2) Cell viability was monitored by the MTT assay which measures reduction of 3-(4,5-dimethylthiazol-2-yl)-2,5-diphenyl tetrazolium bromide to formasan by mitochondria of viable cells as described in Mossman, T., J. Immunogen., 21, 235-248 (1983). The cells are incubated with MTT for four hours at 37° C. and analyzed in an ELISA reader at 560 nm. The optical density of formasan generated by untreated cell cultures (O.D. control) is defined as one MTT unit. The number of MTT units in culture samples undergoing treatments is calculated as the ratio (O.D.sample−O.D.blank)/O.D.control).
Three human malignant cell lines were evaluated to sensitivity to dimethyl TMH in vitro. […] The medium was aspirated, the adherent monolayer was washed with phosphate-buffered saline, and cell viability was monitored by the MTI assay. […]

LAN5 neuroblastoma cells = assay: MTT cell viability in complete darkness, LAN5 cells; type: cell-based, human; settings: exposure at least 72 hours, 0.1-20 μM
Description: as §1, §2
(§3) Three human malignant cell lines were evaluated to sensitivity to dimethyl TMH in vitro. […] The medium was aspirated, the adherent monolayer was washed with phosphate-buffered saline, and cell viability was monitored by the MTI assay.

U87MG glioblastoma cells = assay: MTT cell viability in complete darkness, U87MG cells; type: cell-based, human
Description: as §1, §2, §3

[2] = tested on: human peripheral blood lymphocytes (PBL); assay: MTT viability of primary peripheral blood lymphocytes in the dark and with light; type: cell-based; settings: 72 hours
Description: as §2
Human peripheral blood lymphocytes (PBL) are non-proliferating cells in the absence of mitogenic stimuli. The effects of different doses of dimethyl-TMH on PBL were examined in the presence or absence of irradiation with polychromatic white light. PBL (post-mitotic) were plated (2×10^5 cells/well) in two separate round bottom 96-well plates (in triplicates). Dimethyl-TMH was added to the cultures. One plate was kept in the dark, and the other was exposed to polychromatic white light at a fluence rate of 8 mW/cm^2 for 30 min (a total of 14.4 J/cm^2). Both plates were then cultured at 37° C., 5% CO2 for 72 hours and cell viability was assayed by the MTT assay.

[3] = tested on: U251 human glioblastoma cells; assay: Cell cycle and DNA content analysis (propidium iodide, FACS) in the dark; type: cell-based; settings: for cell cycle arrest: U251, dark
From the text: The cells were then stained with propidium iodide, washed with PBS and analyzed in a fluorescence activated cell sorter (FACS). A computer program arranged the DNA-related fluorescence as follows: the minimal amount of fluorescence is considered to be one whole set of cellular DNA related to the resting G1 phase. A double amount of fluorescence is considered to be G2 phase, in which the whole genome is duplicated following complete DNA synthesis, and the in-between amounts are considered to be the DNA synthetic S-phase, in which the total DNA synthesis is not yet completed.

[4] = tested on: SQ2 anaplastic squamous cell carcinoma; assay: Tumor foci in BALB/c mice bearing SQ2 squamous cell carcinoma treated with dimethyl-TMH; type: in vivo; settings: for number of tumor foci / multifocal spread of the tumor: SQ2 tumor-bearing mice versus control
Description: The effective cytocidal activity of dimethyl-TMH in vitro encouraged the evaluation of its safety and anti-tumoral efficacy profile in tumor-bearing mice. Experiments were carried out in mice bearing tumors derived from the SQ2 highly metastatic anaplastic squamous cell carcinoma (SCC) line. This tumor develops as multifocal centers that spread at the vicinity of the primary tumor and metastases develop approximately two months after cell inoculation. Treatments with 300-600 μM dimethyl-TMH/mouse, administered twice or three-times a week were initiated when the tumors reached 5-7 mm in diameter.
When the primary tumors reached a diameter of 5 mm, therapy with 300 μM dimethyl-TMH/mouse, administered intraperitoneally twice per week, was initiated. Three weeks after the initiation of therapy, the number of tumor foci, which have developed at the primary tumor site, was recorded.

[5] = tested on: SQ2 highly metastatic anaplastic squamous cell carcinoma; assay: Survival of SQ2 squamous cell carcinoma-bearing mice treated with dimethyl-TMH; type: in vivo, BALB/c mice
Description: In another experiment, BALB/c mice were inoculated with 5×10^5 cells of the SQ2 highly metastatic anaplastic squamous cell carcinoma line, intradermally in shaved backs. When the primary tumors reached a diameter of 3-4 mm, i.p. administration of dimethyl TMH 200 μg/mouse (400 μM/mouse) was initiated on day 7 after tumor cell inoculation and then administered twice weekly to the tumor-bearing mice 2× per week for six weeks (total of 12 doses). Animal survival was then followed. […] This appears to be the result of reduced metastatic growth as evident from Table 1 in Example 4 above.

[6] = Tolerability of intraperitoneal administration in mice; type: in vivo, BALB/c mice; settings: i.p. on a daily basis for one week
[7] = tested on: human malignant glioblastoma cell lines; assay: Photodynamic induction of cell death in glioblastoma cell lines with light; type: cell-based
Description: Cell killing by dimethyl-TMH occurred at doses in which hypericin had no effect on the cultures. […] The mechanisms that operate in the dark were very different from those that mediate light-induced photosensitization. In the dark, cell death occurs approximately four days after the compound is administered, whereas the cells died within 2-3 hours with light.
Photodynamic (PD) stress is the level of phototoxicity inflicted upon target cells by photodynamic compounds and exposure to light. Light irradiation was performed from a fluorescent source of two parallel 40 Watts tubes placed at a fixed distance of 16 cm and measured to emit an incidence of 4 mWatt/cm^2. Light intensities were quantitated using the IL 1350 Radiometer/Photometer, from International Light Inc., U.S.A.

tumor neovascularization = assay: Tumor neovascularization in tumor-bearing mice; settings: mouse, in vivo
From the text: These hitherto unknown attributes were detected while studying the effects of hypericin and of helianthrone derivatives on breast adenocarcinoma tumors induced in mice with the DA-3^HI cell line and on murine anaplastic squamous carcinoma tumors induced with the SQ-2 cell line. Both are highly metastatic tumors and if surgically resected after having reached a diameter larger than 5 mm, the mice will go on to develop metastases in the lungs and liver. The metastases cause death of the animals within approximately two months following surgery.
By preventing development of new blood vessels to supply a growing metastasis, the rapidly growing metastatic focus is deprived of nutrients and oxygen for its rapidly multiplying cells and the lesion degenerates.

[8] = tested on: anaplastic squamous cell carcinoma tumors; assay: Tumor growth in mice bearing anaplastic squamous cell carcinoma tumors; type: in vivo, BALB/c mice; settings: 200 μg/mouse every other day
[9] = 300 μM/mouse i.p. twice per week
[10] = 21 days after start of therapy, 300 μM/mouse i.p. twice per week

COc1cc(OC)c2c3c(OC)cc(OC)c4c(=O)c5ccc(C)cc5c(c43)c3c4cc(C)ccc4c(=O)c1c23 [dimethyl-TMH, 10,13-dimethyl-1,3,4,6-tetramethoxy-helianthrone]
cell viability (MTT) [1]: Cell viability was lost
cell viability (MTT) (LAN5 neuroblastoma cells): Cell viability was lost
cell viability (MTT) (U87MG glioblastoma cells; complete darkness, exposure at least 72 hours, 0.1-20 μM): Cell viability was lost
loss of cell viability compared with hypericin (U87MG glioblastoma cells; in the dark): more effective than the treatment with hypericin
effect on cell viability ([2]; normal non-proliferating PBL, absence of light irradiation): no effect
LD50 (cell death after photosensitization) ([2]; polychromatic white light 8 mW/cm2 for 30 min (14.4 J/cm2), MTT): approximately 0.65 μM
proportion of cells in the S-phase with duration of exposure ([3]; 10 μM, 24, 48, 72 hours): increased steadily
cell cycle arrest ([3]; 10 μM): arrest at mid-S phase
cell cycle arrest ([3]; 20 μM): exclusive arrest at the S phase
phases of the cell replication cycle at which malignant cells are arrested ([3]; glioblastoma and neuroblastoma cells): mid S and G2 phases
toxicity of therapeutic doses to the animals [4, 9]: non-toxic
treated mice in which the primary tumors hardened and fell off [4, 9]: 5
number of mice with 1 focus [4, 10]: 8
number of mice with 2 foci [4, 10]: 1
number of mice with 3 foci [4, 10]: 0
number of mice with 4 foci [4, 10]: 0
number of tumor foci / multifocal spread of the tumor [4]: considerably reduced
number of tumor foci / multifocal spread of the tumor ([4]; listed as dimethyl TMH): completely inhibited
prolongation of animal survival compared to untreated controls ([5]; 200 μg/mouse (400 μM/mouse) i.p. twice weekly for six weeks (12 doses)): approximately 40.3%
primary tumor growth during the treatment ([5]; 200 μg/mouse i.p. twice weekly for six weeks): continued to grow
adverse effect on the animals [6]: no adverse effect
photodynamic induction of cell death compared with hypericin ([7]; treatment in conjunction with light): more potent than hypericin
time to cell death ([7]; with light): 2 to 3 h
neovascularization of tumors (tumor neovascularization): prevented neovascularization
tumor growth compared to untreated tumor-bearing control mice [8]: significant inhibition of tumor growth
